We go through 13 molecules from PubChem BioAssay (NCI).

Among the test systems are HCT-15 colon; CAKI-1 renal; ACHN renal; NCI-H522 lung; SNB-75 CNS; U251 CNS; MALME-3M melanoma; IGROV1 ovarian; SK-MEL-2 melanoma.
Common to all, as to test: DTP human tumour cell line panel, 48 h

The structures appear in SMILES notation.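 1) Cells in 96-well plates. 2) Compound, 48 h, 5 concentrations. 3) Linear interpolation between surrounding doses. 4) Unreached endpoint = highest concentration. GI50 marks 50% less growth. TGI: concentration producing complete growth inhibition.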

In the case of `CC(=O)NCCc1c2c(c3nccc4c3c1Nc1ccccc1-4)OCS2`, the GI50 – broadly, the concentration giving 50% growth inhibition – in the experiment with HCT-15 colon is 1.26 µM; with CAKI-1 renal, 0.249 µM; in the experiment with ACHN renal, 0.199 µM; with NCI-H522 lung, 0.936 µM; with SNB-75 CNS, 15.3 µM; in the experiment on U251 CNS it was 1.72 µM. The figures for the GI50 with MALME-3M melanoma, with IGROV1 ovarian and in the experiment with SK-MEL-2 melanoma were 7.28 µM, 0.976 µM and 3 µM, respectively. Further, the TGI – broadly, the concentration at which net growth stops – with HCT-15 colon worked out at 8.77 µM; in the experiment on CAKI-1 renal, 8.59 µM; in the experiment on ACHN renal, 3.27 µM; in the experiment on NCI-H522 lung it was 3.11 µM; in the experiment with SNB-75 CNS, 70.4 µM; in the experiment with U251 CNS it was 15.7 µM. In addition, the values for the TGI in the experiment on MALME-3M melanoma, with IGROV1 ovarian and in the experiment with SK-MEL-2 melanoma were 24.7 µM, 5.61 µM and 13.9 µM, respectively.

On to `CC12CCC3C(CCC4Cc5[nH]c6ccccc6c5CC43C)C1CCC2O` (configuration not stated), for which the GI50 was 0.695 µM in the experiment with HCT-15 colon; 0.791 µM with CAKI-1 renal; 0.967 µM in the experiment with ACHN renal; 0.295 µM in the experiment with NCI-H522 lung; 0.574 µM in the experiment on SNB-75 CNS; 0.646 µM in the experiment with U251 CNS. In addition, the GI50 is 2.92 µM in the experiment on MALME-3M melanoma, 0.768 µM with IGROV1 ovarian and 4.28 µM with SK-MEL-2 melanoma. The TGI was over 100 µM in the experiment on HCT-15 colon; over 100 µM with CAKI-1 renal; over 100 µM in the experiment on ACHN renal; 5.73 µM in the experiment on NCI-H522 lung; over 100 µM with SNB-75 CNS; over 48 µM with U251 CNS. For the same molecule, the concentration for total growth inhibition (TGI) in the experiment on MALME-3M melanoma, with IGROV1 ovarian and in the experiment with SK-MEL-2 melanoma was over 100 µM throughout.

On to `CN(Cc1cnc2nc(N)nc(N)c2n1)c1ccc(C(=O)NC(CCC(=O)O)C(=O)O)cc1C(F)(F)F` (configuration not stated), for which the TGI with HCT-15 colon, in the experiment with CAKI-1 renal, in the experiment with ACHN renal, with NCI-H522 lung, with SNB-75 CNS and in the experiment on U251 CNS was over 100 µM in each case. The TGI with MALME-3M melanoma, in the experiment with IGROV1 ovarian and with SK-MEL-2 melanoma was over 100 µM each time.

For `O=C(Nc1ccc(Cl)c(Cl)c1)c1cccc(NC2=C(Cl)C(=O)N(Cc3ccccc3)C2=O)c1`, the GI50 was 36.6 µM in the experiment with HCT-15 colon; 53.9 µM in the experiment with CAKI-1 renal; 39.8 µM in the experiment with ACHN renal; 16.6 µM in the experiment on NCI-H522 lung; over 100 µM in the experiment on SNB-75 CNS; 35.3 µM with U251 CNS. For the same molecule, the GI50 in the experiment on MALME-3M melanoma was 62.1 µM; with IGROV1 ovarian, 21.1 µM; with SK-MEL-2 melanoma, 23.5 µM. Besides, the TGI was over 100 µM in the experiment on HCT-15 colon; over 100 µM in the experiment with CAKI-1 renal; over 100 µM in the experiment with ACHN renal; 45.5 µM with NCI-H522 lung; over 100 µM in the experiment with SNB-75 CNS; over 100 µM with U251 CNS. The TGI in the experiment with MALME-3M melanoma was over 100 µM; in the experiment with IGROV1 ovarian, 91.1 µM; in the experiment with SK-MEL-2 melanoma, 56.5 µM.

In the case of `Cc1c(N2CCCC2)cc2c(c1NC(=O)c1ccccc1Cl)C(C)(C)CC2(C)C`, the TGI amounted to 28.3 µM in the experiment with HCT-15 colon; 26.1 µM with CAKI-1 renal; 28.4 µM with ACHN renal; 28.4 µM in the experiment with NCI-H522 lung; 28.9 µM in the experiment on SNB-75 CNS; 27.6 µM with U251 CNS. The TGI in the experiment on MALME-3M melanoma turned out to be 36.1 µM; with IGROV1 ovarian, 28 µM; in the experiment with SK-MEL-2 melanoma, 30 µM.

As to `CCOC(=O)c1ccc2[nH]c(-c3ccc(S(=O)(=O)F)cc3)cc(=O)c2c1`, the TGI is over 100 µM in the experiment with HCT-15 colon; over 100 µM in the experiment on CAKI-1 renal; 84.2 µM in the experiment on ACHN renal; 39.4 µM in the experiment with NCI-H522 lung; over 100 µM in the experiment with SNB-75 CNS; over 100 µM in the experiment with U251 CNS. Also, the TGI in the experiment with MALME-3M melanoma was 90.6 µM; in the experiment on IGROV1 ovarian it was over 100 µM; with SK-MEL-2 melanoma, over 100 µM.

Consider `FC(F)(F)c1nc(N2CCCC2)ncc1-c1nnnn1-c1ccc(Cl)cc1`, for which the GI50 in the experiment on HCT-15 colon was 28.5 µM; in the experiment on CAKI-1 renal, 17.5 µM; with ACHN renal it was 18.7 µM; in the experiment with NCI-H522 lung it was 10.2 µM; in the experiment on SNB-75 CNS it was 12 µM; in the experiment with U251 CNS, 33 µM. Besides, the figures for the GI50 in the experiment with MALME-3M melanoma, with IGROV1 ovarian and in the experiment with SK-MEL-2 melanoma were 16.9 µM, 25.5 µM and 18 µM, respectively. In addition, the TGI is over 100 µM in the experiment with HCT-15 colon; 88.2 µM with CAKI-1 renal; over 100 µM in the experiment with ACHN renal; 59 µM in the experiment with NCI-H522 lung; 65.3 µM in the experiment on SNB-75 CNS; over 100 µM with U251 CNS. Besides, the values for the TGI in the experiment on MALME-3M melanoma, with IGROV1 ovarian and in the experiment on SK-MEL-2 melanoma were 42.6 µM, over 100 µM and over 100 µM, respectively.

`O=C(Nc1ccc(Cl)cc1Cl)C1C(=O)N(c2ccc(Cl)cc2Cl)C(=O)/C1=N\Nc1ccc([N+](=O)[O-])cc1[N+](=O)[O-]` (configuration not stated): the TGI with HCT-15 colon is over 100 µM; with CAKI-1 renal, over 100 µM; in the experiment with ACHN renal, over 100 µM; in the experiment on NCI-H522 lung, 71 µM; in the experiment on SNB-75 CNS, 97.7 µM; in the experiment on U251 CNS, over 100 µM. Besides, the TGI in the experiment with MALME-3M melanoma, in the experiment with IGROV1 ovarian and with SK-MEL-2 melanoma was over 100 µM throughout.

Regarding `O=C[C@@H](CO)O[C@H](C=O)c1c[nH]c(=O)[nH]c1=O`, the TGI came out at 327 µM in the experiment with HCT-15 colon; 250 µM with CAKI-1 renal; 719 µM in the experiment on ACHN renal; 282 µM in the experiment on NCI-H522 lung; 1310 µM with SNB-75 CNS; 930 µM with U251 CNS. In addition, the TGI was 253 µM in the experiment on MALME-3M melanoma, 343 µM in the experiment on IGROV1 ovarian and 3680 µM in the experiment on SK-MEL-2 melanoma.

For the molecule `CCc1nc(N)nc(N)c1-c1ccc(NCCN)c([N+](=O)[O-])c1`, the TGI in the experiment on HCT-15 colon is over 100 µM; in the experiment with CAKI-1 renal, over 100 µM; in the experiment with ACHN renal, over 100 µM; in the experiment with NCI-H522 lung, over 51.1 µM; with SNB-75 CNS it was over 89.7 µM; with U251 CNS, over 100 µM. The TGI with MALME-3M melanoma is 40.7 µM; in the experiment with IGROV1 ovarian, over 100 µM; in the experiment on SK-MEL-2 melanoma, over 100 µM.

For the molecule `COc1cccc(C2c3cc4c(cc3OC(C)(N3CCCC3)C2C)OCO4)c1OC` (configuration not stated), the TGI in the experiment on HCT-15 colon was 30.7 µM; in the experiment with CAKI-1 renal, 47.4 µM; with ACHN renal, 31.6 µM; with NCI-H522 lung it was 52.3 µM; in the experiment with SNB-75 CNS, 94.3 µM; in the experiment with U251 CNS, 24.5 µM. Also, the values for the TGI in the experiment with MALME-3M melanoma, in the experiment with IGROV1 ovarian and in the experiment with SK-MEL-2 melanoma were 66.5 µM, over 100 µM and 27 µM, respectively.

`CC1CC[C@]2(C(=O)O)CCC3(COC(=O)/C=C\c4ccc(O)cc4)C(=CCC4[C@@]5(C)CC[C@H](O)C(C)(C)C5CC[C@]43C)[C@@H]2[C@H]1C` (some centres not stated): the TGI with HCT-15 colon was over 100 µM; with CAKI-1 renal it was 48.3 µM; with ACHN renal it was 22.5 µM; in the experiment with NCI-H522 lung, 44.6 µM; in the experiment with SNB-75 CNS, 80.9 µM; in the experiment on U251 CNS, 23.4 µM. Besides, the TGI came to 87.9 µM with MALME-3M melanoma, 26.8 µM in the experiment with IGROV1 ovarian and 51.8 µM with SK-MEL-2 melanoma.

On to `Cc1ccc([N+](=O)[O-])cc1NC(=O)Nc1cccc(F)c1`, for which the GI50 in the experiment with HCT-15 colon was 3.44 µM; with CAKI-1 renal, 3.35 µM; in the experiment with ACHN renal it was 3.78 µM; in the experiment with NCI-H522 lung, 2.64 µM; in the experiment with SNB-75 CNS it was 11.6 µM; in the experiment with U251 CNS, 3.82 µM. Also, the values for the GI50 with MALME-3M melanoma, in the experiment with IGROV1 ovarian and in the experiment on SK-MEL-2 melanoma were 4.66 µM, 5.78 µM and 8.82 µM, respectively. Also, the TGI in the experiment with HCT-15 colon is over 100 µM; in the experiment with CAKI-1 renal, over 100 µM; with ACHN renal, 23 µM; in the experiment with NCI-H522 lung, 15.7 µM; in the experiment with SNB-75 CNS it was 37.1 µM; in the experiment with U251 CNS it was 18.4 µM. The TGI came out at 51.8 µM in the experiment on MALME-3M melanoma, 35.9 µM with IGROV1 ovarian and 89.2 µM in the experiment with SK-MEL-2 melanoma.
